The test system of data set [1] is greenhouse red spidermite (Tetranychus urticae). In words: Tetranychus test, OP-resistant (spray treatment). The data set is classed as in vivo. To be noted: application rate of 100 g/ha; sprayed bean leaf discs. As for the experimental part: Tetranychus Test, OP-Resistant (Spray Treatment)
• Solvents: 78.0 parts by weight of acetone • 1.5 parts by weight of dimethylformamide • Emulsifier: 0.5 part by weight of alkylaryl polyglycol ether
To produce a suitable preparation of active compound, 1 part by weight of active compound is mixed with the stated amounts of solvent and emulsifier, and the concentrate is diluted with emulsifier-containing water to the desired concentration.
Discs of the leaves of beans (Phaseolus vulgaris) which are infested by all stages of the greenhouse red spidermite (Tetranychus urticae) are sprayed with an active compound preparation of the desired concentration.
After the desired period of time, the effect in % is determined. 100% means that all spidermites have been killed; 0% means that none of the spidermites have been killed.

The nature of data set [2]: logP determination by HPLC (formic acid method). Type of data set: physicochemical. The note with it: reversed-phase HPLC column (C18), pH 3.4, HPLC on reversed-phase column (C18), acidic range (pH 3.4), 55° C.; read-out: logP (HCOOH). An outline of the steps: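 Reversed-phase C18 HPLC at 55 °C, pH 3.4, with a 4.25 min gradient from 10% to 95% acetonitrile (formic acid-modified water/acetonitrile phases). logP was derived from retention time by linear interpolation between unbranched alkan-2-ones (C3-C16) of known logP.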

Data set [3] concerns green peach aphid (Myzus persicae). The data set can be described thus: Myzus test (spray treatment). The data set is classed as in vivo. To be noted: foliar, application rate of 500 g/ha, sprayed Chinese cabbage leaf discs, read-out: activity (effect in %, aphids killed). An outline of the steps: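 Chinese cabbage leaf discs heavily infested with all stages of the aphid are sprayed with compound formulated in acetone/dimethylformamide with alkylaryl polyglycol ether emulsifier, diluted in emulsifier-containing water. After a set period, kill is scored in %: 100% all aphids dead, 0% none.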

The test system of data set [4] is Boophilus microplus. The data set can be described thus: Boophilus microplus test (injection). The note with it: application rate of 20 μg/animal; injected into the abdomen. Type of data set: in vivo. How it is done: Boophilus microplus Test (Injection) • Solvent: Dimethyl sulphoxide To produce a suitable preparation of active compound, 1 part by weight of active compound is mixed with the stated amounts of solvent, and the concentrate is diluted with water to the desired concentration. The solution of active compound is injected into the abdomen (Boophilus microplus), and the animals are transferred into dishes and stored in a climatized room. The activity is checked by examination for deposition of fertile eggs, After the desired period of time, the effect in % is determined. 100% means that none of the ticks has laid fertile eggs.

Take `Cc1nc(-c2cccnc2)sc1-c1ccn(Cc2ccccn2)n1` [Ex. No. 27]: the “activity (effect in %, spidermites killed)” value in data set [1] is listed as at least 80%. Also, the chromatographic logP in data set [2] turned out to be 1.69. Besides, the pest or weed control at 500 g/ha in data set [3] was at least 80%.
On to `FC(F)(F)c1cccc(-c2cnc(-c3cccnc3)s2)n1` [Ex. No. 49], for which the chromatographic logP in data set [2] was 2.81. Besides, in data set [3], the pest or weed control at 500 g/ha is at least 80%. The “activity (effect in %, deposition of fertile eggs)” value in data set [4] was at least 80%.
For `Cc1nc(-c2cccnc2)sc1-c1nc(-c2ccncc2)no1` [compound 138], the chromatographic logP in data set [2] came to 2.19. The pest or weed control at 500 g/ha in data set [3] is at least 80%.
For `Cc1cccc(-c2noc(-c3sc(-c4cccnc4)nc3C)n2)n1` [compound 139] the same measures were 2.61 and at least 80%.
Consider `Cc1nc(-c2cccnc2)sc1-c1ccn(C(=S)NCC(F)(F)F)n1` [compound 141], for which the chromatographic logP in data set [2] was 3.42. Moreover, in data set [3], the pest or weed control at 500 g/ha is at least 80%.
Taken in the same sequence, the figures for `Cc1nc(-c2cccnc2)sc1-c1ccnc(C(F)(F)C(F)(F)F)n1` [compound 142] were 3.35 and at least 80%.
For `Cc1nc(-c2cccnc2)sc1-c1ccn(C(=S)NCC(C)C)n1` [compound 143] the same measures were 4.28 and at least 80%.
Take `Cc1nc(-c2cccnc2)sc1-c1ccc(C(F)(F)F)nc1` [compound 144]: the chromatographic logP in data set [2] was 2.72. In addition, the pest or weed control at 500 g/ha in data set [3] was at least 80%.
For `Cc1noc(Cn2ccc(-c3sc(-c4cccnc4)nc3C)n2)n1` [compound 145], the chromatographic logP in data set [2] turned out to be 1.71. The pest or weed control at 500 g/ha in data set [3] is at least 80%.
Consider `Cc1nc(-c2cccnc2)sc1-c1ccn(Cc2ncccn2)n1` [compound 146], for which, in data set [2], the chromatographic logP worked out at 1.43. In data set [3], the pest or weed control at 500 g/ha was at least 80%.
`c1cnc(Cn2ccc(-c3cnc(-c4cccnc4)s3)n2)nc1` [compound 147]: in data set [2], the chromatographic logP amounted to 1.24. In data set [3], the pest or weed control at 500 g/ha was at least 80%.
For `c1cncc(-c2ncc(-c3cccc(C4=NOCCO4)n3)s2)c1` [compound 148] the same measures were 1.59 and at least 80%.
`c1cncc(-c2ncc(-c3cccc(-n4ccnn4)n3)s2)c1` [compound 149]: the chromatographic logP in data set [2] turned out to be 1.85. In data set [3], the pest or weed control at 500 g/ha was at least 80%.
Taken in the same sequence, the figures for `Cc1nc(-c2cncnc2)sc1-c1cccc(-c2ncccn2)n1` [compound 150] were 1.76 and at least 80%.
For `c1cnc(-c2cccc(-c3cnc(-c4cncnc4)s3)n2)nc1` [compound 151] the same measures were 1.54 and at least 80%.
For `Cc1nc(-c2cncc(F)c2)sc1-c1cccc(-c2ncccn2)n1` [compound 152] the same measures were 2.43 and at least 80%.
Turning to `Fc1cncc(-c2ncc(-c3cccc(-c4ncccn4)n3)s2)c1` [compound 153], the chromatographic logP in data set [2] turned out to be 2.11. The pest or weed control at 500 g/ha in data set [3] is at least 80%.
For `Cc1nc(-c2cccnc2)sc1-c1cccc(-n2ccnn2)n1` [compound 154] the same measures were 2.13 and at least 80%.
For `c1cncc(-c2ncc(-c3cccc(-n4nccn4)n3)s2)c1` [compound 155] the same measures were 1.89 and at least 80%.
Taken in the same sequence, the figures for `Cc1nc(-c2cccnc2)sc1-c1cccc(-n2nc(C(F)(F)F)n(C)c2=O)n1` [compound 156] were 2.65 and at least 80%.
Take `Cn1c(C(F)(F)F)nn(-c2cccc(-c3cnc(-c4cccnc4)s3)n2)c1=O` [compound 157]: the chromatographic logP in data set [2] amounted to 2.35. Besides, the pest or weed control at 500 g/ha in data set [3] is at least 80%.
For `c1cncc(-c2nnc(-c3ccncc3)s2)c1` [compound 158] the same measures were 1.41 and at least 80%.
Regarding `FC(F)(F)Oc1cccc(-c2nnc(-c3cccnc3)s2)c1` [compound 159], the chromatographic logP in data set [2] came out at 3.16. In addition, the pest or weed control at 500 g/ha in data set [3] was at least 80%.
With `c1cnc(-n2ccc(-c3nnc(-c4cccnc4)s3)n2)nc1` [compound 160], the chromatographic logP in data set [2] was 1.44. Further, the pest or weed control at 500 g/ha in data set [3] was at least 80%.
For `c1cnc(-n2nccc2-c2nnc(-c3cccnc3)s2)nc1` [compound 161], the chromatographic logP in data set [2] came to 1.13. The pest or weed control at 500 g/ha in data set [3] was at least 80%.
For `c1cncc(-c2nnc(-c3cc[nH]n3)s2)c1` [compound 162] the same measures were 0.84 and at least 80%.
For `c1cncc(-c2nnc(-c3cccnc3)s2)c1` [compound 163] the same measures were 1.07 and at least 80%.
For `c1cnc(-c2cccc(-c3nnc(-c4cncnc4)s3)n2)nc1` [compound 164], the chromatographic logP in data set [2] is 1.39. Besides, the pest or weed control at 500 g/ha in data set [3] is at least 80%.
For `Fc1cncc(-c2nnc(-c3cccc(-c4ncccn4)n3)s2)c1` [compound 165] the same measures were 1.91 and at least 80%.
Taken in the same sequence, the figures for `Cn1nc(-c2cccnc2)cc1-c1ccn(Cc2ccccn2)n1` [compound 166] were 0.91 and at least 80%.
For `COCc1nccc(-c2cc(-c3cccnc3)nn2C)n1` [compound 167] the same measures were 0.83 and at least 80%.
In the case of `Cn1nc(-c2cccnc2)cc1C1=NN(c2ncccn2)CCO1` [compound 168], the chromatographic logP in data set [2] came to 0.95. Moreover, the pest or weed control at 500 g/ha in data set [3] was at least 80%.
As for `Cn1nc(-c2cccnc2)cc1-c1ccn(-c2ccccn2)n1` [compound 169], the chromatographic logP in data set [2] was found to be 1.64. In addition, the pest or weed control at 500 g/ha in data set [3] was at least 80%.
Taken in the same sequence, the figures for `Cn1nc(-c2cccnc2)cc1-c1cc[nH]n1` [compound 170] were 0.42 and at least 80%.
For `Cn1nc(-c2cccnc2)cc1-c1ccnc(-c2ccccn2)n1` [compound 171] the same measures were 0.87 and at least 80%.
